Test results taken from the NIST ThermoML archive (doi:10.1016/j.fluid.2018.09.026).
Values joined by “and” are separate entries in the source; they are usually repeats but may differ in a detail not shown here. Equal values may be shown once.

Details: Liquid; for viscosity: Vibrating wire viscometry; for mass density: Vibrating tube method

OCCOCCOCCO [triethylene glycol]
Details | mass density | viscosity
303 K, 65190 kPa | – | 48.95 mPa·s
303 K, 66350 kPa | – | 49.26 mPa·s
303.15 K, 100 kPa | 1115.2 kg/m3 and 1115.1 kg/m3 | –
303.15 K, 630 kPa | 1115.4 kg/m3 | –
303.15 K, 1130 kPa | 1115.6 kg/m3 | –
303.15 K, 1620 kPa | 1115.9 kg/m3 | –
303.15 K, 2140 kPa | 1116.1 kg/m3 | –
303.15 K, 3070 kPa | 1116.5 kg/m3 | –
303.15 K, 5080 kPa | 1117.4 kg/m3 | –
303.15 K, 6960 kPa | 1118.3 kg/m3 | –
303.15 K, 9960 kPa | 1119.6 kg/m3 | –
303.15 K, 14840 kPa | 1121.7 kg/m3 | –
303.15 K, 19750 kPa | 1123.8 kg/m3 | –
303.15 K, 24670 kPa | 1125.9 kg/m3 | –
303.15 K, 29570 kPa | 1127.9 kg/m3 | –
303.15 K, 34500 kPa | 1129.9 kg/m3 | –
303.15 K, 39360 kPa | 1131.9 kg/m3 | –
303.15 K, 44300 kPa | 1133.8 kg/m3 | –
303.15 K, 49190 kPa | 1135.7 kg/m3 | –
303.15 K, 54090 kPa | 1137.6 kg/m3 | –
303.15 K, 58850 kPa | 1139.3 kg/m3 | –
303.15 K, 63890 kPa | 1141.2 kg/m3 | –
303.15 K, 68750 kPa | 1142.9 kg/m3 | –
313.15 K, 100 kPa | 1107.4 kg/m3 | –
313.15 K, 670 kPa | 1107.6 kg/m3 | –
313.15 K, 1130 kPa | 1107.9 kg/m3 | –
313.15 K, 1600 kPa | 1108.1 kg/m3 | –
313.15 K, 2080 kPa | 1108.3 kg/m3 | –
313.15 K, 3100 kPa | 1108.8 kg/m3 | –
313.15 K, 5030 kPa | 1109.7 kg/m3 | –
313.15 K, 7010 kPa | 1110.6 kg/m3 | –
313.15 K, 10010 kPa | 1112 kg/m3 | –
313.15 K, 14880 kPa | 1114.2 kg/m3 | –
313.15 K, 19750 kPa | 1116.4 kg/m3 | –
313.15 K, 24680 kPa | 1118.6 kg/m3 | –
313.15 K, 29560 kPa | 1120.6 kg/m3 | –
313.15 K, 34510 kPa | 1122.7 kg/m3 | –
313.15 K, 39330 kPa | 1124.7 kg/m3 | –
313.15 K, 44290 kPa | 1126.7 kg/m3 | –
313.15 K, 49180 kPa | 1128.6 kg/m3 | –
313.15 K, 54160 kPa | 1130.6 kg/m3 | –
313.15 K, 59000 kPa | 1132.4 kg/m3 | –
313.15 K, 63910 kPa | 1134.3 kg/m3 | –
313.15 K, 68840 kPa | 1136 kg/m3 | –
313.26 K, 170 kPa | – | 18.68 mPa·s [middle of 4 runs]
313.26 K, 510 kPa | – | 18.97 mPa·s and 18.84 mPa·s and 18.73 mPa·s
313.26 K, 520 kPa | – | 18.83 mPa·s
313.26 K, 930 kPa | – | 18.88 mPa·s [middle of 6 runs]
313.26 K, 4460 kPa | – | 19.45 mPa·s
313.26 K, 4470 kPa | – | 19.52 mPa·s [middle of 4 runs]
313.26 K, 9660 kPa | – | 20.02 mPa·s
313.26 K, 9670 kPa | – | 20.2 mPa·s and 20.18 mPa·s
313.26 K, 19980 kPa | – | 22.07 mPa·s and 21.92 mPa·s
313.26 K, 19990 kPa | – | 21.69 mPa·s
313.26 K, 29400 kPa | – | 23.4 mPa·s and 23.28 mPa·s
313.26 K, 29410 kPa | – | 23.3 mPa·s
313.26 K, 29530 kPa | – | 23.21 mPa·s
313.26 K, 29540 kPa | – | 23.53 mPa·s
313.26 K, 29550 kPa | – | 23.54 mPa·s
313.26 K, 29570 kPa | – | 23.18 mPa·s
313.26 K, 49800 kPa | – | 26.84 mPa·s
313.26 K, 49830 kPa | – | 27.18 mPa·s
313.26 K, 49920 kPa | – | 27.22 mPa·s
313.26 K, 49950 kPa | – | 26.89 mPa·s
313.26 K, 64360 kPa | – | 29.73 mPa·s
313.26 K, 64840 kPa | – | 30.3 mPa·s
313.26 K, 65380 kPa | – | 30.08 mPa·s
313.26 K, 66900 kPa | – | 30.18 mPa·s
323.15 K, 100 kPa | 1099.6 kg/m3 and 1099.5 kg/m3 | –
323.15 K, 590 kPa | 1099.8 kg/m3 | –
323.15 K, 1140 kPa | 1100 kg/m3 | –
323.15 K, 1600 kPa | 1100.3 kg/m3 | –
323.15 K, 2080 kPa | 1100.5 kg/m3 | –
323.15 K, 3020 kPa | 1101 kg/m3 | –
323.15 K, 5050 kPa | 1101.9 kg/m3 | –
323.15 K, 7000 kPa | 1102.9 kg/m3 | –
323.15 K, 9970 kPa | 1104.3 kg/m3 | –
323.15 K, 14870 kPa | 1106.7 kg/m3 | –
323.15 K, 19780 kPa | 1108.9 kg/m3 | –
323.15 K, 24700 kPa | 1111.2 kg/m3 | –
323.15 K, 29650 kPa | 1113.3 kg/m3 | –
323.15 K, 34470 kPa | 1115.4 kg/m3 | –
323.15 K, 39340 kPa | 1117.5 kg/m3 | –
323.15 K, 44250 kPa | 1119.6 kg/m3 | –
323.15 K, 49170 kPa | 1121.6 kg/m3 | –
323.15 K, 54080 kPa | 1123.5 kg/m3 | –
323.15 K, 58970 kPa | 1125.5 kg/m3 | –
323.15 K, 63800 kPa | 1127.3 kg/m3 | –
323.15 K, 68780 kPa | 1129.2 kg/m3 | –
333.15 K, 100 kPa | 1091.7 kg/m3 | –
333.15 K, 660 kPa | 1092 kg/m3 | –
333.15 K, 1110 kPa | 1092.2 kg/m3 | –
333.15 K, 1600 kPa | 1092.5 kg/m3 | –
